{
  "source": "patent US20200024662A1",
  "about": "“METHODS FOR TREATING OPIOID ADDICTION” (ASSUREX HEALTH, INC., priority 2016, published 2020)",
  "key": {"[1]": {"tested_on": "patients treated with Methadone in the START trial", "assay": "PK/PD Model 3 binning vs Methadone completion", "type": "in vivo, human", "description": "(§1) For the model analyses, models were developed that sort patients into one of three categories, Green (‘G’) Yellow (‘Y’) or Red (‘R’). Patients determined to be high risk for non-completion by the model are placed into the Red Bin. Patients at intermediate risk of non-completion are placed in the Yellow Bin, and for this study, Yellow Bin patients are treated the same as patients found to be at Low Risk of non-completion, or those who are placed in the Green Bin. Thus, the Green and Yellow bins are combined for analysis.\nThree separate PK/PD Models were generated by combining the PK model with each of the three PD models separately as follows. For each PKPD model, the corresponding PD risk score was added to the raw PK score (bin). A total PD risk score that was negative, represents a reduction of the baseline PK score, while a total PD risk score that was positive represented an increase in the baseline PK score.\n(§2) Samples from patients treated with Methadone in the START trial described in Example 1 above were used (N=352). […] Each model was tested as described below against Sample 1, Sample 2 and/or the Full Sample.\n(§3) Pearson's product moment, Chi-square with Yates correction were calculated. Diagnostic tests, odds ratios, Pearson's product moment, Chi-square with Yates correction were calculated using MEDCALC and R version 3.3.1."}, "[2]": {"tested_on": "patients treated with Methadone in the START trial", "assay": "PD Model 3 binning vs Methadone completion", "type": "in vivo, human", "description": "as §1\nPD Model 3: The completion percentage was calculated for each genotype. For each genotype, the raw percent difference of completion compared to the mean of completion was assigned as the genotype's PD score. The patient's PD risk was calculated by summing the total genotype risk score. Bins were assigned over the range of scores that maximized completers in Green and Yellow bins and non-completers in the Red bin.\nas §2, §3"}, "[3]": {"conditions": "PK/PD Model 3, Full Sample, Green bin, Risk Score −1.3 to 1.3"}, "[4]": {"conditions": "PK/PD Model 3, Full Sample, Red bin, Risk Score 2.4+"}, "[5]": {"conditions": "PK/PD Model 3, Full Sample, Yellow bin, Risk Score 1.4 to 2.3"}, "[6]": {"conditions": "PK/PD Model 3, Sample 1, Green bin, Risk Score −0.8 to 1.3"}, "[7]": {"conditions": "PK/PD Model 3, Sample 1, Red bin, Risk Score 2.4 to 5.1"}, "[8]": {"conditions": "PK/PD Model 3, Sample 1, Yellow bin, Risk Score 1.4 to 2.3"}, "[9]": {"conditions": "PK/PD Model 3, Sample 2, Green bin, Risk Score −1.1 to 0.8"}, "[10]": {"conditions": "PK/PD Model 3, Sample 2, Red bin, Risk Score 2.2 to 4.3"}, "[11]": {"conditions": "PK/PD Model 3, Sample 2, Yellow bin, Risk Score 0.9 to 2.1"}, "[12]": {"conditions": "PD Model 3, Full Sample, Green bin, Risk Score −2.3 to −0.3"}, "[13]": {"conditions": "PD Model 3, Full Sample, Red bin, Risk Score 1+"}, "[14]": {"conditions": "PD Model 3, Full Sample, Yellow bin, Risk Score −0.2 to 0.9"}, "[15]": {"conditions": "PD Model 3, Sample 1, Green bin, Risk Score −1.8 to −0.3"}, "[16]": {"conditions": "PD Model 3, Sample 1, Red bin, Risk Score 1 to 2.1"}, "[17]": {"conditions": "PD Model 3, Sample 1, Yellow bin, Risk Score −0.2 to 0.9"}, "[18]": {"conditions": "PD Model 3, Sample 2, Green bin, Risk Score −2.1 to −0.7"}, "[19]": {"conditions": "PD Model 3, Sample 2, Red bin, Risk Score 0.2 to 2"}, "[20]": {"conditions": "PD Model 3, Sample 2, Yellow bin, Risk Score −0.6 to 0.1"}},
  "data": [
    {"smiles": "CCC(=O)C(CC(C)N(C)C)(c1ccccc1)c1ccccc1", "note": "(stereo not drawn) [Methadone, methadone]", "values": [
      {"measurement": "Completers", "setting": "[1]; [3]", "result": 150},
      {"measurement": "Non Completers", "setting": "[1]; [3]", "result": 7},
      {"measurement": "Completers", "setting": "[1]; [4]", "result": 64},
      {"measurement": "Non Completers", "setting": "[1]; [4]", "result": 28},
      {"measurement": "Completers", "setting": "[1]; [5]", "result": 93},
      {"measurement": "Non Completers", "setting": "[1]; [5]", "result": 10},
      {"measurement": "Completers", "setting": "[1]; [6]", "result": 80},
      {"measurement": "Non Completers", "setting": "[1]; [6]", "result": 2},
      {"measurement": "Completers", "setting": "[1]; [7]", "result": 26},
      {"measurement": "Non Completers", "setting": "[1]; [7]", "result": 12},
      {"measurement": "Completers", "setting": "[1]; [8]", "result": 50},
      {"measurement": "Non Completers", "setting": "[1]; [8]", "result": 6},
      {"measurement": "Completers", "setting": "[1]; [9]", "result": 77},
      {"measurement": "Non Completers", "setting": "[1]; [9]", "result": 2},
      {"measurement": "Completers", "setting": "[1]; [10]", "result": 24},
      {"measurement": "Non Completers", "setting": "[1]; [10]", "result": 10},
      {"measurement": "Completers", "setting": "[1]; [11]", "result": 58},
      {"measurement": "Non Completers", "setting": "[1]; [11]", "result": 5},
      {"measurement": "Completers", "setting": "[2]; [12]", "result": 137},
      {"measurement": "Non Completers", "setting": "[2]; [12]", "result": 9},
      {"measurement": "Completers", "setting": "[2]; [13]", "result": 39},
      {"measurement": "Non Completers", "setting": "[2]; [13]", "result": 10},
      {"measurement": "Completers", "setting": "[2]; [14]", "result": 131},
      {"measurement": "Non Completers", "setting": "[2]; [14]", "result": 26},
      {"measurement": "Completers", "setting": "[2]; [15]", "result": 74},
      {"measurement": "Non Completers", "setting": "[2]; [15]", "result": 2},
      {"measurement": "Completers", "setting": "[2]; [16]", "result": 20},
      {"measurement": "Non Completers", "setting": "[2]; [16]", "result": 7},
      {"measurement": "Completers", "setting": "[2]; [17]", "result": 62},
      {"measurement": "Non Completers", "setting": "[2]; [17]", "result": 11},
      {"measurement": "Completers", "setting": "[2]; [18]", "result": 77},
      {"measurement": "Non Completers", "setting": "[2]; [18]", "result": 2},
      {"measurement": "Completers", "setting": "[2]; [19]", "result": 29},
      {"measurement": "Non Completers", "setting": "[2]; [19]", "result": 9},
      {"measurement": "Completers", "setting": "[2]; [20]", "result": 53},
      {"measurement": "Non Completers", "setting": "[2]; [20]", "result": 6}
    ]}
  ]
}
